Measurements: ChEMBL document CHEMBL1201862, “PubChem BioAssay data set” (2004)
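How tested: cells in 96-well plates exposed to compound for 48 hours at five concentrations. GI50 = concentration required for 50% inhibition of growth.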 Active and inactive are the calls of the source. Rule as the data show it: active = GI50 up to about 1.1 µM and inactive = higher.

Legend:
Test in all cases: NCI anticancer screen, dose series, 48 h
786-0 = test system: 786-0
EKVX = test system: EKVX
HCC 2998 = test system: HCC 2998
HCT-15 = test system: HCT-15
HL-60 = test system: HL-60
HT-29 = test system: HT-29
KM12 = test system: KM12
LOX IMVI = test system: LOX IMVI
MCF7 = test system: MCF7
NCI-H226 = test system: NCI-H226
NCI-H460 = test system: NCI-H460
OVCAR-3 = test system: OVCAR-3
SK-MEL-2 = test system: SK-MEL-2
SNB-75 = test system: SNB-75
SR = test system: SR
SW-620 = test system: SW-620
TK-10 = test system: TK-10
U-251 = test system: U-251
UACC-257 = test system: UACC-257
Malme-3M = test system: Malme-3M

| SMILES | GI50 (786-0) | GI50 (EKVX) | GI50 (HCC 2998) | GI50 (HCT-15) [µM] | GI50 (HL-60) | GI50 (HT-29) | GI50 (KM12) | GI50 (LOX IMVI) | GI50 (MCF7) | GI50 (NCI-H226) | GI50 (NCI-H460) | GI50 (OVCAR-3) | GI50 (SK-MEL-2) | GI50 (SNB-75) | GI50 (SR) | GI50 (SW-620) | GI50 (TK-10) | GI50 (U-251) | GI50 (UACC-257) | GI50 (Malme-3M) |
| --- | --- | --- | --- | --- | --- | --- | --- | --- | --- | --- | --- | --- | --- | --- | --- | --- | --- | --- | --- | --- |
| N#CC1(C#N)C(c2ccccc2)C=CC(c2ccc([N+](=O)[O-])cc2)C1(C#N)C#N (stereo unspecified) | 2.67 µM (inactive) | 14.8 µM (inactive) | 19.4 µM (inactive) | 3.69 | 0.223 µM (active) | 3.61 µM (inactive) | 22.1 µM (inactive) | 2.35 µM (inactive) | 5.98 µM (inactive) | 17.3 µM (inactive) | 30.3 µM (inactive) | 9.98 µM (inactive) | 17.1 µM (inactive) | 24.7 µM (inactive) | 2.53 µM (inactive) | 3.66 µM (inactive) | 3.65 µM (inactive) | 20.4 µM (inactive) | 16.3 µM (inactive) | – |
| CCOP(=O)(OCC)/C(C#N)=C/c1ccc(-c2ccc(F)cc2F)o1 | 13.9 µM (inactive) | 16.3 µM (inactive) | 14 µM (inactive) | 13.5 | 12.3 µM (inactive) | 16.5 µM (inactive) | 16 µM (inactive) | 13.3 µM (inactive) | 19.7 µM (inactive) | 16.5 µM (inactive) | 20 µM (inactive) | 14.9 µM (inactive) | 23.5 µM (inactive) | 18.5 µM (inactive) | 15 µM (inactive) | 18.7 µM (inactive) | 12.6 µM (inactive) | 14.8 µM (inactive) | 13.3 µM (inactive) | 18.4 µM (inactive) |
| COc1ccc(CC[N+]2(C)COc3cc4oc(=O)cc(C)c4cc3C2)cc1OC (stereo unspecified) | > 100 µM (inactive) | > 100 µM (inactive) | > 100 µM (inactive) | > 100 | > 100 µM (inactive) | > 100 µM (inactive) | > 100 µM (inactive) | > 100 µM (inactive) | > 100 µM (inactive) | > 100 µM (inactive) | – | > 100 µM (inactive) | > 100 µM (inactive) | > 100 µM (inactive) | 0.0782 µM (active) | > 100 µM (inactive) | > 100 µM (inactive) | > 100 µM (inactive) | > 100 µM (inactive) | > 100 µM (inactive) |
| CC(=O)Oc1c(-c2ccccc2)sc2ccccc12 | 15.6 µM (inactive) | 22.3 µM (inactive) | 17.1 µM (inactive) | 16.6 | 18 µM (inactive) | 20.3 µM (inactive) | 18.4 µM (inactive) | 13.5 µM (inactive) | 27.6 µM (inactive) | 13.3 µM (inactive) | 14.5 µM (inactive) | > 10 µM (inactive) | 13.3 µM (inactive) | 15.8 µM (inactive) | 10.1 µM (inactive) | 36.1 µM (inactive) | 22.6 µM (inactive) | 18 µM (inactive) | 12.5 µM (inactive) | 18.2 µM (inactive) |
| CC1(C)CC(=O)c2c([nH]c(=S)c(C#N)c2-c2ccc(Br)cc2)C1 | 78.5 µM (inactive) | > 100 µM (inactive) | 35.8 µM (inactive) | 45.8 | 43.9 µM (inactive) | 40.3 µM (inactive) | – | 57.5 µM (inactive) | 40.7 µM (inactive) | 46.8 µM (inactive) | 40.7 µM (inactive) | 30.7 µM (inactive) | 24.9 µM (inactive) | > 100 µM (inactive) | 22.8 µM (inactive) | 46.9 µM (inactive) | 81.8 µM (inactive) | 35.6 µM (inactive) | 52.2 µM (inactive) | 60.7 µM (inactive) |
| COc1ccc(/C=C/C(=O)N[C@@H]2C(=O)N3[C@@H]2SC(C)(C)[C@@H]3C(=O)O)cc1OC | > 100 µM (inactive) | > 100 µM (inactive) | > 100 µM (inactive) | > 100 | > 100 µM (inactive) | > 100 µM (inactive) | > 100 µM (inactive) | > 100 µM (inactive) | > 100 µM (inactive) | > 100 µM (inactive) | > 100 µM (inactive) | > 100 µM (inactive) | > 100 µM (inactive) | > 100 µM (inactive) | > 100 µM (inactive) | > 100 µM (inactive) | > 100 µM (inactive) | > 100 µM (inactive) | > 100 µM (inactive) | – |
